Source: publication PMC11173485, “Connecting GSK-3β Inhibitory Activity with IKK-β or ROCK-1 Inhibition to Target Tau Aggregation and Neuroinflammation in Alzheimer’s Disease—Discovery, In Vitro and In Cellulo Activity of Thiazole-Based Inhibitors” (Molecules, 2024)
Read-outs that look alike come from different tables or passages of the source.

Experiments:
Format in all cases: biochemical
[1] = target: T1, CDK9/cyclin T1 (Homo sapiens, UniProt P50750); experiment: Eurofins KinaseProfiler radiometric selectivity screen; settings: Km ATP, remaining enzyme activity, n = 2
T1 construct: purchased Eurofins Discovery (KinaseProfiler service)
Description: (§1) Compound 62 is an ATP-competitive inhibitor of GSK-3β, raising concerns about selectivity. Therefore, we performed a selectivity screening at Eurofins Discovery on the CMGC group of kinases, which included the CDK, DYRK, MAPK, and GSK families (Figure 3 and Table S1 in the SI).
(§2) Selectivity studies for compound 62
(§3) Selectivity studies were performed at Eurofins in Kinase Enzymatic Radiometric [Km ATP]
(§4) Kinase Profiler Lead Hunter Assay. The percentage of enzymatic activity was measured at 1
(§5) µM of compound 62 in duplicate for 17 selected kinases.
(§6) Table S1. Inhibitory activity of compound 62 against panel of selected CMGC kinases.
(§7) kinase % of enzyme activity at 1 μM of compound 62±SD*
(§8) *Where n = 2, the value reported here is actually range / √ 2 .

[2] = target: T2, SAPK3 (Homo sapiens, UniProt P53778); experiment: as above; settings: Km ATP, remaining enzyme activity, n = 2
T2 construct: purchased Eurofins Discovery (KinaseProfiler service)
Description: as §1, §2, §3, §4, §5, §6, §7, §8

[3] = target: T3, DYRK1A (Homo sapiens, UniProt Q13627); experiment: as above; settings: Km ATP, remaining enzyme activity, n = 2
T3 construct: purchased Eurofins Discovery (KinaseProfiler service)
Description: as §1, §2, §3, §4, §5, §6, §7, §8

[4] = target: T4, SAPK2b (Homo sapiens, UniProt Q15759); experiment: as above; settings: Km ATP, remaining enzyme activity, n = 2
T4 construct: purchased Eurofins Discovery (KinaseProfiler service)
T4 sequence (Q15759 whole entry): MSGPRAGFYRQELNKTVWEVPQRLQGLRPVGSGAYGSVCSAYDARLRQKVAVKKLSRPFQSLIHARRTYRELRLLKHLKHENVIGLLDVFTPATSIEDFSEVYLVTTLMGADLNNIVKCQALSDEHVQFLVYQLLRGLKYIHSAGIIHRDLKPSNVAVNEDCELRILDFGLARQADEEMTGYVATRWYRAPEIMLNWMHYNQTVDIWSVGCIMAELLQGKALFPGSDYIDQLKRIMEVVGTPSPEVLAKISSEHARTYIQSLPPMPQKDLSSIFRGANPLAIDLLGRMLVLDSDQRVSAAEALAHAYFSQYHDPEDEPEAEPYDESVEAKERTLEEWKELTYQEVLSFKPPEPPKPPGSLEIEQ
Description: as §1, §2, §3, §4, §5, §6, §7, §8

[5] = target: T5, CDK4/cyclinD3 (Homo sapiens, UniProt P11802); experiment: as above; settings: Km ATP, remaining enzyme activity, n = 2
T5 construct: purchased Eurofins Discovery (KinaseProfiler service)
Description: as §1, §2, §3, §4, §5, §6, §7, §8

[6] = target: T6, MAPK2 (Homo sapiens, UniProt P28482); experiment: as above; settings: Km ATP, remaining enzyme activity, n = 2
T6 construct: purchased Eurofins Discovery (KinaseProfiler service)
Description: as §1, §2, §3, §4, §5, §6, §7, §8

[7] = target: T7, GSK-3α (Homo sapiens, UniProt P49840); experiment: as above; settings: Km ATP, remaining enzyme activity, n = 2
T7 construct: purchased Eurofins Discovery (KinaseProfiler service)
T7 sequence (P49840 whole entry): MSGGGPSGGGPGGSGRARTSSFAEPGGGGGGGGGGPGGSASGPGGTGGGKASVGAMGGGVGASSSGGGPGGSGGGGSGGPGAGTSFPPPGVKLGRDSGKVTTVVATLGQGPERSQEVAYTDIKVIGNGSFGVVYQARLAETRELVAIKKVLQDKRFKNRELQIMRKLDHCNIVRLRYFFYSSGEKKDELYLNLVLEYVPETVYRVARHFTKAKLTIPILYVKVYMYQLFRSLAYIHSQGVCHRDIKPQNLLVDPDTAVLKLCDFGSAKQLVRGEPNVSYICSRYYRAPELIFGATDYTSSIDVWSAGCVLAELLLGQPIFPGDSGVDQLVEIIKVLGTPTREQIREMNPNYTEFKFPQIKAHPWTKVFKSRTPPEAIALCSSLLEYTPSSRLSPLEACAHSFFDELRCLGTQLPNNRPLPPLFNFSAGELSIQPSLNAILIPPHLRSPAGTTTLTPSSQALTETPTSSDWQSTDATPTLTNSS
Description: as §1, §2, §3, §4, §5, §6, §7, §8

[8] = target: T8, JNK2α2 (Homo sapiens, UniProt P45984); experiment: as above; settings: Km ATP, remaining enzyme activity, n = 2
T8 construct: purchased Eurofins Discovery (KinaseProfiler service)
T8 sequence (P45984 whole entry): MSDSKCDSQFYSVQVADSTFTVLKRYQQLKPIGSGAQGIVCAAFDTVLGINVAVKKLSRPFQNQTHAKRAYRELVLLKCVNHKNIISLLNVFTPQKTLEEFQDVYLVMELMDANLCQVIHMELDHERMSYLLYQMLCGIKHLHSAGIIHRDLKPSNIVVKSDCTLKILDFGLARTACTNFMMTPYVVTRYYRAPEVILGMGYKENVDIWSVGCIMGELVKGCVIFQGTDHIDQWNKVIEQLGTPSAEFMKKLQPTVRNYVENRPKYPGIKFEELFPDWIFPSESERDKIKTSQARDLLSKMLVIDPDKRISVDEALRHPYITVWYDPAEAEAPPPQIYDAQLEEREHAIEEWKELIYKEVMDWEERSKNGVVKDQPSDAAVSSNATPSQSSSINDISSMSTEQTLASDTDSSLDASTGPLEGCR
Description: as §1, §2, §3, §4, §5, §6, §7, §8

[9] = target: T9, DYRK1B (Homo sapiens, UniProt Q9Y463); experiment: as above; settings: Km ATP, remaining enzyme activity, n = 2
T9 construct: purchased Eurofins Discovery (KinaseProfiler service)
T9 sequence (Q9Y463 whole entry): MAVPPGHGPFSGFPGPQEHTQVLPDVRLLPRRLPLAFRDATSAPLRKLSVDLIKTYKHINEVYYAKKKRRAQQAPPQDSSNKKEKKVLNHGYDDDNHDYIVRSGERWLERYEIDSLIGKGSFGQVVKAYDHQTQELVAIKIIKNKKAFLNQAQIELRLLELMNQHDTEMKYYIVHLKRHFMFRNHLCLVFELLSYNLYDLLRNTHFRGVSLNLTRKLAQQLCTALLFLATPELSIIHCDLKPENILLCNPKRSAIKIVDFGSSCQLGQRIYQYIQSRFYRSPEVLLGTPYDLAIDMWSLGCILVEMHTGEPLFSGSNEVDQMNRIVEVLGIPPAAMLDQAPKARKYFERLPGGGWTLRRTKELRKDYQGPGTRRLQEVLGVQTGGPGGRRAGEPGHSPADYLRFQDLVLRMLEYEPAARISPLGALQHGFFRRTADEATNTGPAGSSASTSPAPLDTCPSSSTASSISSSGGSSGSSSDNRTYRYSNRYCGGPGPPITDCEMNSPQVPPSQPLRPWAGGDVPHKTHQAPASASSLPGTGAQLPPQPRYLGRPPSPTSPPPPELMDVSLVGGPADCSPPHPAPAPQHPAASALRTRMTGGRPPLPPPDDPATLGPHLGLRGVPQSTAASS
Description: as §1, §2, §3, §4, §5, §6, §7, §8

[10] = target: T10, JNK3 (Homo sapiens, UniProt P53779); experiment: as above; settings: Km ATP, remaining enzyme activity, n = 2
T10 construct: purchased Eurofins Discovery (KinaseProfiler service)
T10 sequence (P53779 whole entry): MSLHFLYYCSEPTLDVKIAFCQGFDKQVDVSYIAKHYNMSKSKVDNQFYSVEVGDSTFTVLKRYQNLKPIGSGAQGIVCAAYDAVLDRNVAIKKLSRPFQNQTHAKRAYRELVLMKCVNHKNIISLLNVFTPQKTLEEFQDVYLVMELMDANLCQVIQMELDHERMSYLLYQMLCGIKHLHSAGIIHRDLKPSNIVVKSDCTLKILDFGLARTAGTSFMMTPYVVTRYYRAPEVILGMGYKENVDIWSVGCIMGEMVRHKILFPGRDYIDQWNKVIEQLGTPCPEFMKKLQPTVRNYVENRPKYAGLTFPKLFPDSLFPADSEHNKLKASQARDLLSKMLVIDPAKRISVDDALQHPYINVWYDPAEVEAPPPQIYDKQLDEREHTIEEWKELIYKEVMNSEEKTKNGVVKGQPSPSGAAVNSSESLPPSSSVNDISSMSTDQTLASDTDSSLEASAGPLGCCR
Description: as §1, §2, §3, §4, §5, §6, §7, §8

[11] = target: T11, MAPK1 (Homo sapiens, UniProt P27361); experiment: as above; settings: Km ATP, remaining enzyme activity, n = 2
T11 construct: purchased Eurofins Discovery (KinaseProfiler service)
Description: as §1, §2, §3, §4, §5, §6, §7, §8

[12] = target: T12, CDK1/cyclinB (Homo sapiens, UniProt P06493); experiment: as above; settings: Km ATP, remaining enzyme activity, n = 2
T12 construct: purchased Eurofins Discovery (KinaseProfiler service)
T12 sequence (P06493 whole entry): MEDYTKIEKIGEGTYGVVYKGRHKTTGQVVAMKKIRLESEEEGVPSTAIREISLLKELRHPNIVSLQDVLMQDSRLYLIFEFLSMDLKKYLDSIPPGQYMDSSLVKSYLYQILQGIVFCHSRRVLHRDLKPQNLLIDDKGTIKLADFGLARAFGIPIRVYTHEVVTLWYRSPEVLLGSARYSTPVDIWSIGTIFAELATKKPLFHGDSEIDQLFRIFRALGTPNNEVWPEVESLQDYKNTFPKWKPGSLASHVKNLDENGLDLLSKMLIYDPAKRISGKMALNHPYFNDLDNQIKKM
T12 sequence (P14635 whole entry partner): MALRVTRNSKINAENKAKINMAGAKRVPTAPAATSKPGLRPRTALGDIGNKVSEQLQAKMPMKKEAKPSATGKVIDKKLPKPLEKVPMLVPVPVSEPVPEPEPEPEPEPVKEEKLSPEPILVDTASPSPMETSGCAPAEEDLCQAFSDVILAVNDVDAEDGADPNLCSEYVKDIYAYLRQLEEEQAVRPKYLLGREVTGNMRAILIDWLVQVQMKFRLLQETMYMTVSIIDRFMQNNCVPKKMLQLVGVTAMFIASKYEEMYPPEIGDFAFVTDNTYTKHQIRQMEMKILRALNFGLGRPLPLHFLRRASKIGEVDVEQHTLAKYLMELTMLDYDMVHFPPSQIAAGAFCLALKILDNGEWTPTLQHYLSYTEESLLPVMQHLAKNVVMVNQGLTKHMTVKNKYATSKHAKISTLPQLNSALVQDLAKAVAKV
Description: as §1, §2, §3, §4, §5, §6, §7, §8

[13] = target: T13, CDK2/cyclinA (Homo sapiens, UniProt P24941); experiment: as above; settings: Km ATP, remaining enzyme activity, n = 2
T13 construct: purchased Eurofins Discovery (KinaseProfiler service)
Description: as §1, §2, §3, §4, §5, §6, §7, §8

[14] = target: T14, SAPK2a(T106M) (Homo sapiens, UniProt Q16539, T106M); experiment: as above; settings: Km ATP, remaining enzyme activity, n = 2
T14 construct: purchased Eurofins Discovery (KinaseProfiler service)
T14 sequence (Q16539 whole entry T106M): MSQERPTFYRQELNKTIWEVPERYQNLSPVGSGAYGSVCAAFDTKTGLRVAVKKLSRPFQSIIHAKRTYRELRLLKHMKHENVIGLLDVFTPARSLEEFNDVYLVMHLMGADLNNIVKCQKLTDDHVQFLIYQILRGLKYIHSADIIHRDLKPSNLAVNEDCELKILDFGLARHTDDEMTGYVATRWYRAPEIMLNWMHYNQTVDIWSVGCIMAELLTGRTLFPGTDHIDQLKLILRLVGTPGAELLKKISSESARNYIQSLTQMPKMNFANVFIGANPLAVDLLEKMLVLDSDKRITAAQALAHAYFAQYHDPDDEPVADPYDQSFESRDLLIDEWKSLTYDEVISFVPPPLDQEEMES
Description: as §1, §2, §3, §4, §5, §6, §7, §8

[15] = target: T15, CDK6/cyclinD3 (Homo sapiens, UniProt Q00534); experiment: as above; settings: Km ATP, remaining enzyme activity, n = 2
T15 construct: purchased Eurofins Discovery (KinaseProfiler service)
Description: as §1, §2, §3, §4, §5, §6, §7, §8

[16] = target: T16, CDK7/cyclinH/ MAT1 (Homo sapiens, UniProt P50613); experiment: as above; settings: Km ATP, remaining enzyme activity, n = 2
T16 construct: purchased Eurofins Discovery (KinaseProfiler service)
T16 sequence (P50613 whole entry): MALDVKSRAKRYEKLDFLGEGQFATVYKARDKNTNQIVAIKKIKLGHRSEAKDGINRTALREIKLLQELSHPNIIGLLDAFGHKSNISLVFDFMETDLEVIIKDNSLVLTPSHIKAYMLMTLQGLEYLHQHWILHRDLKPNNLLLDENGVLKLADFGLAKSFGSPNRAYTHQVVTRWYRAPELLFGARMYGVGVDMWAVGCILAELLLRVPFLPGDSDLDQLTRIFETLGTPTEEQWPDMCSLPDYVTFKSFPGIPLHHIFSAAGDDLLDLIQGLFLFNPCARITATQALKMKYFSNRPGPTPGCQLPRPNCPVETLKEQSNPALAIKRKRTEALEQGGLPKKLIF
T16 sequence (P51946 whole entry partner): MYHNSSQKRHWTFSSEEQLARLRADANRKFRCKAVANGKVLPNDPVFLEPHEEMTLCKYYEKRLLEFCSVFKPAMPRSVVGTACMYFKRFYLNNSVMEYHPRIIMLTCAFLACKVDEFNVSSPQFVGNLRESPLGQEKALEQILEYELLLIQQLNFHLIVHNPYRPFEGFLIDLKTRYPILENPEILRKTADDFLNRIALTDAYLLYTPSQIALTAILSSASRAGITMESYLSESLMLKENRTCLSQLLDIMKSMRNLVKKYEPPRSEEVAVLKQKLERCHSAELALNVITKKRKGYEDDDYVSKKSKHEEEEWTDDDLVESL
T16 sequence (P51948 whole entry partner): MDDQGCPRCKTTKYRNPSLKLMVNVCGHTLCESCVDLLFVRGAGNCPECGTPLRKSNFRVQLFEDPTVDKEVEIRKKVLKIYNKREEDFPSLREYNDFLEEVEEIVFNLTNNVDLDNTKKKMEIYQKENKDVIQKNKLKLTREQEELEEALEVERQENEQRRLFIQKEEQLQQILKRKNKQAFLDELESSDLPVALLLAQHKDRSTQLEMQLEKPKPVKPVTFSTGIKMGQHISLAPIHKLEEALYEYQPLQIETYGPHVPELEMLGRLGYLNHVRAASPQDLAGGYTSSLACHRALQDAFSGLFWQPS
Description: as §1, §2, §3, §4, §5, §6, §7, §8

[17] = target: T17, GSK-3β (Homo sapiens, UniProt P49841); experiment: Kinetic studies of GSK-3β inhibition (ADP-Glo, varying ATP); parameters: purchased Promega
T17 sequence (P49841 whole entry): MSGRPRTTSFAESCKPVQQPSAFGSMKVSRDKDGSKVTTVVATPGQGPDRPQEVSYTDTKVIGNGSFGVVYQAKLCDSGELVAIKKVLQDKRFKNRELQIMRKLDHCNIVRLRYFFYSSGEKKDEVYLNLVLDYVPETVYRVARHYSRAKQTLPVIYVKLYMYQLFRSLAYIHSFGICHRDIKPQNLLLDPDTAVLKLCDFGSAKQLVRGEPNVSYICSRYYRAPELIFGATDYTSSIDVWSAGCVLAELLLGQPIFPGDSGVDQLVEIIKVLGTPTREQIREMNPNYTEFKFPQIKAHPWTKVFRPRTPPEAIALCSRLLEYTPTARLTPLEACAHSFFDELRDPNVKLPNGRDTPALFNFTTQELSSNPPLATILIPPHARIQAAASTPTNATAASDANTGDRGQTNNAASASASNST
Description: Non-linear regression analysis of the Michaelis–Menten equation was conducted on ATP-velocity curves to calculate the Vmax and Km parameters. […] Lineweaver–Burk and Cornish–Bowden plots, included in the Supporting Information (Figure S1A,B), further illustrate this observation. […] (refer to Supporting Information, Figure S2). The negative Ki value was directly derived from the plot at the x-axis intersection.
Kinetic studies were performed using the GSK-3β Kinase Enzyme System (Promega; Madison, WI, USA) and ADP-Glo™ bioluminescent assay (Promega; Madison, WI, USA), following the manufacturer’s instructions. The general workflow is described in Section 6.9. Evaluation of In Vitro Inhibitory Potencies towards Kinases GSK-3β, IKK-β, and ROCK-1. […] The substrate concentration was kept constant. The luminescence was measured using the EnSpire multimode microplate reader (PerkinElmer, Waltham, MA, USA). Each data point was collected in triplicate. Vmax and Km values of the Michaelis–Menten kinetics were calculated using nonlinear regression from ATP–velocity curves. Lineweaver–Burk and Cornish–Bowden plots were obtained via linear regression in GraphPad Prism (GraphPad Prism 9; GraphPad Software, San Diego, CA, USA). The Ki value of inhibitor 62 was determined by replotting the Lineweaver–Burk plots data (Km versus [I]).
Kinetic studies of GSK-3β inhibition by compound 62
type of GSK-3β inhibition by compound 62; V = initial velocity rate, S = ATP concentration,
I = inhibitor concentration.
Figure S2. Determination of Ki value for ATP-competitive inhibitor 62. Data replot from
= Michaelis-Menten constant.
(also on this page, place not known: K i -15 -10 -5 5 10 15 -100 -50 50 100 Cmpd 62_Ki determination I [nM] Km -Ki) […]

[18] = target: T17, GSK-3β; experiment: Eurofins KinaseProfiler radiometric selectivity screen; parameters: purchased Eurofins Discovery (KinaseProfiler service)
Description: as §1, §2, §3, §4, §5, §6, §7, §8

For `O=C1NC2(CCOC2)Nc2cc(-c3ccnc(NC(=O)C4CC4)c3)sc21` (stereo not drawn) [Compound 62, N-(4-(4′-Oxo-3′,4,4′,5-tetrahydro-1′H,2H-spiro[furan-3,2′-thieno [3,2-d]pyrimidin]-6′-yl)pyridin-2-yl)cyclopropanecarboxamide], the “% of enzyme activity at 1 μM of compound 62±SD, CDK9/cyclin T1” value [1] was 16±2%, the “% of enzyme activity at 1 μM of compound 62±SD, SAPK3” value [2] was 22±3% and the “% of enzyme activity at 1 μM of compound 62±SD, DYRK1A” value [3] was 1±1%. For the same molecule, the “% of enzyme activity at 1 μM of compound 62±SD, SAPK2b” value [4] was 98±1%, the “% of enzyme activity at 1 μM of compound 62±SD, CDK4/cyclinD3” value [5] was 83±5% and the “% of enzyme activity at 1 μM of compound 62±SD, MAPK2” value [6] was 73±7%. The “% of enzyme activity at 1 μM of compound 62±SD, GSK-3α” value [7] was 0±0%, the “% of enzyme activity at 1 μM of compound 62±SD, JNK2α2” value [8] was 89±14% and the “% of enzyme activity at 1 μM of compound 62±SD, DYRK1B” value [9] was 1±1%. The “% of enzyme activity at 1 μM of compound 62±SD, JNK3” value [10] was 21±2%, the “% of enzyme activity at 1 μM of compound 62±SD, MAPK1” value [11] was 37±2% and the “% of enzyme activity at 1 μM of compound 62±SD, CDK1/cyclinB” value [12] was 33±1%. For the same molecule, the “% of enzyme activity at 1 μM of compound 62±SD, CDK2/cyclinA” value [13] was 26±2%, the “% of enzyme activity at 1 μM of compound 62±SD, SAPK2a(T106M)” value [14] was 80±1% and the “% of enzyme activity at 1 μM of compound 62±SD, CDK6/cyclinD3” value [15] was 88±0%. For the same molecule, the “% of enzyme activity at 1 μM of compound 62±SD, CDK7/cyclinH/ MAT1” value [16] was 57±1%, the “type of GSK-3β inhibition” value ([17]; ATP 10-100 μM, inhibitor 0-100 nM, Km rises, Vmax preserved) was “ATP-competitive” and the Ki ([17]; replot from Lineweaver-Burk plots, unit inferred, read-out: Determined Ki (Figure S2)) was 2.22 nM. The Ki ([17]; replot of Lineweaver–Burk data, Km versus [I], read-out: Ki GSK-3β) was 2 nM, the “% of enzyme activity at 1 μM of compound 62±SD, GSK-3β” value ([18]; Km ATP, remaining enzyme activity, n = 2) was 1±1% and the inhibition at 1 µM ([18]; text says GSK family) was 99%.
